The record followed here is patent US10124004B2, “Pyrido[3,4-d]pyrimidine derivative and pharmaceutically acceptable salt thereof” (Teijin Pharma Limited, priority 2015, dated 2018).

In one experiment the target is T1, CDK4/cyclin D3 (Homo sapiens, UniProt P11802).
T1 construct: purchased Carna Biosciences, Inc. QS S Assist CDK4/Cyclin D3_FP Kit
The experiment can be described thus: Human CDK4/cyclin D3 inhibitory activity (QS S Assist CDK4/Cyclin D3_FP Kit, IMAP fluorescence polarization). The format is biochemical. The conditions noted are these: 50% inhibitory concentration against CDK4/cyclin D3, given as class symbol. Put shortly:
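IMAP fluorescence-polarization kinase assay with kit ATP/substrate/metal mix and 12.5 to 25 ng/well enzyme in 20 mM HEPES pH 7.4, 0.01% Tween20, 2 mM DTT. Reaction ran 45 min at room temperature, then binding reagent was added for 30 min in the dark. IC50 was taken from dose-response fits of percent inhibition.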

For a further experiment, the target named is T2, CDK2/cyclin A2 (Homo sapiens, UniProt P24941).
T2 construct: purchased Carna Biosciences, Inc. QS S Assist CDK2/Cyclin A2_FP Kit
As to the kind of experiment: Human CDK2/cyclin A2 inhibitory activity (QS S Assist CDK2/Cyclin A2_FP Kit, IMAP fluorescence polarization). The format is biochemical. The conditions noted are these: 50% inhibitory concentration against CDK2/cyclin A2, given as class symbol. Put shortly:
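Kinase activity read as fluorescence polarization (485/535 nm) after phosphorylated fluorescent substrate binds IMAP reagent (30 min, RT, dark). Enzyme (2.5 ng/well) reacted 60 min at RT with ATP/substrate/metal in HEPES pH 7.4 buffer with Tween 20 and DTT; no-enzyme wells define 0% activity; IC50 by curve fit.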

T1 sequence (P11802 whole entry): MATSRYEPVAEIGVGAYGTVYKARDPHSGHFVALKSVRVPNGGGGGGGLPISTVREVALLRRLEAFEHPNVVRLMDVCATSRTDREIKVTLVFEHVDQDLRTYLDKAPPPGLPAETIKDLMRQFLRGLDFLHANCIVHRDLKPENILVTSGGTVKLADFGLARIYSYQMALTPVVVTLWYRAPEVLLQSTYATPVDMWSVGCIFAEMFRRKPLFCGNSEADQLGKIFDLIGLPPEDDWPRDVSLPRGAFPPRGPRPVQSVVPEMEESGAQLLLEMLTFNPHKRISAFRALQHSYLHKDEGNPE
T1 sequence (P30281 whole entry partner): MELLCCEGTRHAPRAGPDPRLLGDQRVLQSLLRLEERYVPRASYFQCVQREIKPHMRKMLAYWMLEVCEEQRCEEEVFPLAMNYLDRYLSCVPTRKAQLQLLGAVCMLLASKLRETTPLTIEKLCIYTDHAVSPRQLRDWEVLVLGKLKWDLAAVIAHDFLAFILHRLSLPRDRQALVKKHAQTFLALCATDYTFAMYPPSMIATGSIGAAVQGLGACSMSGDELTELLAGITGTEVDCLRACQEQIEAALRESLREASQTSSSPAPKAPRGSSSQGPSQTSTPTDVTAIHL

Regarding `CC(C)Nc1nc([C@@H](C)O)cc2cnc(Nc3ccc(C(=O)NCCN(C)C)cn3)nc12` [Compound 1164], the concentration for half-maximal inhibition (IC50) at CDK4/cyclin D3 is under 10 nM; at CDK2/cyclin A2, at least 100 nM.

In the case of `CC(C)Nc1nc([C@@H](C)O)cc2cnc(Nc3ccc(C(=O)N4CCN(CCO)CC4)cn3)nc12` [Compound 1165], the results for the IC50 against CDK4/cyclin D3 and at CDK2/cyclin A2 were under 10 nM and 10 to 100 nM, respectively.

For the compound `CC(C)Nc1nc([C@@H](C)O)cc2cnc(Nc3ccc(C(=O)N4CCNC[C@@H]4C)cn3)nc12` [Compound 1166], the values for the IC50 against CDK4/cyclin D3 and against CDK2/cyclin A2 were under 10 nM and at least 100 nM, respectively.

For the compound `CC(C)Nc1nc([C@@H](C)O)cc2cnc(Nc3ccc(C(=O)N4CCNC[C@H]4C)cn3)nc12` [Compound 1167], the IC50 against CDK4/cyclin D3 is under 10 nM; against CDK2/cyclin A2, 10 to 100 nM.

In the case of `CCNc1nc([C@@H](C)O)c(C)c2cnc(Nc3ccc(CN4CCN(CCO)CC4)cn3)nc12` [Compound 1168], the figures for the IC50 at CDK4/cyclin D3 and at CDK2/cyclin A2 were under 10 nM and at least 100 nM, respectively.

`CCNc1nc([C@@H](C)O)cc2cnc(Nc3ccc(CN4CCN(CCO)C(C)(C)C4)cn3)nc12` [Compound 1169]: the figures for the IC50 on CDK4/cyclin D3 and on CDK2/cyclin A2 were under 10 nM and at least 100 nM, respectively.

Consider `C[C@@H](O)c1cc2cnc(Nc3ccc(CN4CCN(CCO)CC4)cn3)nc2c(NCC(F)(F)F)n1` [Compound 1170], for which the half-inhibitory concentration (IC50) on CDK4/cyclin D3 was under 10 nM; on CDK2/cyclin A2 it was at least 100 nM.

For `C[C@@H](O)c1cc2cnc(Nc3ccc(CN4CCN(CCO)CC4)cn3)nc2c(NC2CC(F)C2)n1` (stereo partly drawn) [Compound 1171], the IC50 against CDK4/cyclin D3 was under 10 nM; against CDK2/cyclin A2, at least 100 nM.

`C[C@@H](O)c1cc2cnc(Nc3ccc(N4CCNCC4=O)cn3)nc2c(NC2(C)CC2)n1` [Compound 1173]: the IC50 was under 10 nM on CDK4/cyclin D3 and at least 100 nM against CDK2/cyclin A2.

`C[C@@H](O)c1cc2cnc(Nc3ccc(N4CCNCC4=O)cn3)nc2c(NCC(F)(F)F)n1` [Compound 1174]: the IC50 against CDK4/cyclin D3 was under 10 nM; at CDK2/cyclin A2, at least 100 nM.

In the case of `C[C@@H](O)c1cc2cnc(Nc3ccc(N4CCNCC4)nn3)nc2c(NC2(C)CC2)n1` [Compound 1175], the results for the IC50 at CDK4/cyclin D3 and against CDK2/cyclin A2 were under 10 nM and at least 100 nM, respectively.

Take `CO[C@H](C)c1cc2cnc(Nc3ccc(N4CCN(C(=O)C5CCCO5)CC4)nn3)nc2c(NC(C)C)n1` (stereo partly drawn) [Compound 1176]: the IC50 is under 10 nM against CDK4/cyclin D3 and at least 100 nM against CDK2/cyclin A2.

Consider `CO[C@H](C)c1cc2cnc(Nc3ccc(N4CCN(C(=O)C5CCOC5)CC4)nn3)nc2c(NC(C)C)n1` (stereo partly drawn) [Compound 1177], for which the IC50 is under 10 nM on CDK4/cyclin D3 and at least 100 nM against CDK2/cyclin A2.

`CN(C)CCN1CCc2nc(Nc3ncc4cc(C5CCOC5)nc(N[C@H]5CCCOC5)c4n3)ccc2C1` (stereo partly drawn) [Compound 1178]: the IC50 was under 10 nM at CDK4/cyclin D3 and at least 100 nM against CDK2/cyclin A2.

As to `CN(C)CCN1CCc2nc(Nc3ncc4cc(C5(C)COC5)nc(N[C@H]5CCCOC5)c4n3)ccc2C1` [Compound 1179], the IC50 against CDK4/cyclin D3 is under 10 nM; against CDK2/cyclin A2 it was at least 100 nM.

`CO[C@H](C)c1cc2cnc(Nc3ccc4c(n3)CCN(CCN(C)C)C4)nc2c(N[C@H]2CC[C@H](O)CC2)n1` [Compound 1180]: the figures for the IC50 against CDK4/cyclin D3 and against CDK2/cyclin A2 were under 10 nM and at least 100 nM, respectively.

Regarding `CN(C)CCN1CCc2nc(Nc3ncc4cc(C5CCOC5)nc(N[C@H]5CC[C@H](O)CC5)c4n3)ccc2C1` (stereo partly drawn) [Compound 1181], the IC50 at CDK4/cyclin D3 was under 10 nM; at CDK2/cyclin A2, at least 100 nM.

For `CN(C)CCN1CCc2nc(Nc3ncc4cc(C5(C)COC5)nc(N[C@H]5CC[C@H](O)CC5)c4n3)ccc2C1` [Compound 1182], the IC50 against CDK4/cyclin D3 was under 10 nM; against CDK2/cyclin A2, at least 100 nM.

Consider `CC(C)Nc1nc([C@@H](C)O)cc2cnc(Nc3ccc(N4CCN(C(=O)C5CCCO5)CC4)nn3)nc12` (stereo partly drawn) [Compound 1183], for which the results for the IC50 against CDK4/cyclin D3 and against CDK2/cyclin A2 were under 10 nM and at least 100 nM, respectively.

On to `CCCCNc1nc([C@@H](C)O)cc2cnc(Nc3ccc(CN4CCC[C@@H](O)C4)cn3)nc12` [Compound 1185], for which the IC50 was under 10 nM on CDK4/cyclin D3 and at least 100 nM against CDK2/cyclin A2.

With `CC(C)CNc1nc([C@@H](C)O)cc2cnc(Nc3ccc(CN4CCC[C@@H](O)C4)cn3)nc12` [Compound 1186], the IC50 against CDK4/cyclin D3 was under 10 nM; against CDK2/cyclin A2, at least 100 nM.

Take `C[C@@H](O)c1cc2cnc(Nc3ccc(CN4CCC[C@@H](O)C4)cn3)nc2c(N[C@H]2CC[C@H](O)CC2)n1` [Compound 1187]: the IC50 is under 10 nM against CDK4/cyclin D3 and at least 100 nM at CDK2/cyclin A2.

On to `CCCCNc1nc([C@@H](C)O)cc2cnc(Nc3ccc(CN4CCC[C@H](O)C4)cn3)nc12` [Compound 1188], for which the IC50 on CDK4/cyclin D3 is under 10 nM; against CDK2/cyclin A2 it was at least 100 nM.

As to `CC(C)CNc1nc([C@@H](C)O)cc2cnc(Nc3ccc(CN4CCC[C@H](O)C4)cn3)nc12` [Compound 1189], the IC50 is under 10 nM on CDK4/cyclin D3 and at least 100 nM against CDK2/cyclin A2.

Consider `C[C@@H](O)c1cc2cnc(Nc3ccc(CN4CCC[C@H](O)C4)cn3)nc2c(N[C@H]2CC[C@H](O)CC2)n1` [Compound 1190], for which the IC50 was under 10 nM at CDK4/cyclin D3 and at least 100 nM against CDK2/cyclin A2.

Turning to `CC(C)Nc1nc([C@@H](C)O)cc2cnc(Nc3ccc(N4CCN(C(=O)CN(C)C)CC4)nn3)nc12` [Compound 1191], the IC50 on CDK4/cyclin D3 was under 10 nM; against CDK2/cyclin A2 it was at least 100 nM.

In the case of `CC(C)Nc1nc([C@@H](C)O)cc2cnc(Nc3ccc(CN4CCN(C(=O)C5CCCO5)CC4)cn3)nc12` (stereo partly drawn) [Compound 1192], the results for the IC50 at CDK4/cyclin D3 and against CDK2/cyclin A2 were under 10 nM and at least 100 nM, respectively.

As to `CC(C)Nc1nc([C@@H](C)O)cc2cnc(Nc3ccc(CN4CCN(C(=O)C5CCOC5)CC4)cn3)nc12` (stereo partly drawn) [Compound 1193], the IC50 at CDK4/cyclin D3 is under 10 nM; at CDK2/cyclin A2 it was at least 100 nM.

Turning to `CC(C)Nc1nc([C@@H](C)O)cc2cnc(Nc3ccc(CN4CCN(C(=O)CN(C)C)CC4)cn3)nc12` [Compound 1194], the IC50 at CDK4/cyclin D3 is under 10 nM; at CDK2/cyclin A2, at least 100 nM.

As for `CCCNc1nc([C@@H](C)O)cc2cnc(Nc3ccc(CN4CCC[C@@H](O)C4)cn3)nc12` [Compound 1195], the values for the IC50 against CDK4/cyclin D3 and against CDK2/cyclin A2 were under 10 nM and at least 100 nM, respectively.

As to `CC(C)Nc1nc([C@@H](C)O)cc2cnc(Nc3ccc(CN4CCC[C@@H](O)C4)cn3)nc12` [Compound 1196], the IC50 against CDK4/cyclin D3 is under 10 nM; against CDK2/cyclin A2, at least 100 nM.

As to `C[C@@H](O)c1cc2cnc(Nc3ccc(CN4CCC[C@@H](O)C4)cn3)nc2c(NC(C)(C)C)n1` [Compound 1197], the results for the IC50 against CDK4/cyclin D3 and at CDK2/cyclin A2 were under 10 nM and at least 100 nM, respectively.

As for `CCCNc1nc([C@@H](C)O)cc2cnc(Nc3ccc(CN4CCC[C@H](O)C4)cn3)nc12` [Compound 1198], the IC50 at CDK4/cyclin D3 is under 10 nM; against CDK2/cyclin A2, at least 100 nM.

As to `CC(C)Nc1nc([C@@H](C)O)cc2cnc(Nc3ccc(CN4CCC[C@H](O)C4)cn3)nc12` [Compound 1199], the figures for the IC50 against CDK4/cyclin D3 and against CDK2/cyclin A2 were under 10 nM and at least 100 nM, respectively.

On to `C[C@@H](O)c1cc2cnc(Nc3ccc(CN4CCC[C@H](O)C4)cn3)nc2c(NC(C)(C)C)n1` [Compound 1200], for which the IC50 at CDK4/cyclin D3 is under 10 nM; against CDK2/cyclin A2 it was at least 100 nM.

Take `C[C@@H](O)c1cc2cnc(Nc3ccc(CN4CCN(CCO)CC4)cn3)nc2c(NC2(C)CC2)n1` [Compound 1201]: the IC50 against CDK4/cyclin D3 was under 10 nM; against CDK2/cyclin A2, at least 100 nM.

Consider `CCNc1nc([C@@H](C)O)c(F)c2cnc(Nc3ccc(CN4CCN(CCO)CC4)cn3)nc12` [Compound 1202], for which the IC50 against CDK4/cyclin D3 is under 10 nM; against CDK2/cyclin A2, at least 100 nM.

For `CCNc1nc([C@@H](C)O)cc2cnc(Nc3ccc(CN4CCN(CCO)CC4(C)C)cn3)nc12` [Compound 1203], the results for the IC50 on CDK4/cyclin D3 and at CDK2/cyclin A2 were 10 to 100 nM and at least 100 nM, respectively.

Consider `C[C@@H](O)c1cc2cnc(Nc3ccc(CN4CCN(CCO)CC4)cn3)nc2c(NC2CC(F)(F)C2)n1` [Compound 1204], for which the IC50 against CDK4/cyclin D3 was under 10 nM; against CDK2/cyclin A2 it was at least 100 nM.

Consider `C[C@@H](O)c1cc2cnc(Nc3ccc(CN4CCN(CCO)CC4)cn3)nc2c(NC23CC(C2)C3)n1` [Compound 1205], for which the half-maximal inhibitory concentration (IC50) was under 10 nM on CDK4/cyclin D3 and at least 100 nM against CDK2/cyclin A2.

With `CCCNc1nc([C@@H](C)O)cc2cnc(Nc3ccc(CN4CCN(CCO)[C@@H](C)C4)cn3)nc12` [Compound 1208], the IC50 at CDK4/cyclin D3 is under 10 nM; at CDK2/cyclin A2, at least 100 nM.

`CCCNc1nc([C@@H](C)O)cc2cnc(Nc3ccc(CN4CCN(CCO)[C@H](C)C4)cn3)nc12` [Compound 1209]: the IC50 on CDK4/cyclin D3 is under 10 nM; on CDK2/cyclin A2, at least 100 nM.

On to `C[C@@H](O)c1cc2cnc(Nc3ccc(N4CCNCC4=O)cn3)nc2c(NC2CC(F)C2)n1` (stereo partly drawn) [Compound 1210], for which the IC50 at CDK4/cyclin D3 was under 10 nM; against CDK2/cyclin A2, at least 100 nM.

Regarding `C[C@@H](O)c1cc2cnc(Nc3ccc(N4CCNCC4=O)cn3)nc2c(NC2CC(F)(F)C2)n1` [Compound 1211], the figures for the IC50 against CDK4/cyclin D3 and against CDK2/cyclin A2 were 10 to 100 nM and at least 100 nM, respectively.

With `C[C@@H](O)c1cc2cnc(Nc3ccc(N4CCNCC4)cn3)nc2c(NCCCF)n1` [Compound 1212], the IC50 against CDK4/cyclin D3 was under 10 nM; against CDK2/cyclin A2, at least 100 nM.

Regarding `C[C@@H](O)c1cc2cnc(Nc3ccc(CN4CCN(CCO)CC4)cn3)nc2c(NCCC(F)F)n1` [Compound 1213], the IC50 against CDK4/cyclin D3 is under 10 nM; against CDK2/cyclin A2 it was at least 100 nM.

For `C[C@@H](O)c1cc2cnc(Nc3ccc(CN4CCN(CCO)CC4)cn3)nc2c(NCCC(F)(F)F)n1` [Compound 1214], the IC50 on CDK4/cyclin D3 was under 10 nM; against CDK2/cyclin A2 it was at least 100 nM.

As for `C[C@@H](O)c1cc2cnc(Nc3ccc(CN4CCN(CCO)CC4)cn3)nc2c(NCC(C)(F)F)n1` [Compound 1215], the IC50 is under 10 nM against CDK4/cyclin D3 and at least 100 nM against CDK2/cyclin A2.
